Results on two compounds are retold here after EP2114387B1, “USE OF COMPOSITIONS CONTAINING AT LEAST ONE LIGNANE AND/OR NEOLIGNANE FOR MODULATING TESTOSTERONE LEVELS” (Europe Finances, priority 2007, dated 2008).

For assay [1], the target named is T1, 5-α reductase type I (Homo sapiens, UniProt P18405).
T1 construct: expressed in transfected cells; host or cells: HEK I cells (HEK line kept under Geneticin-418 selection)
T1 sequence (P18405 1-259): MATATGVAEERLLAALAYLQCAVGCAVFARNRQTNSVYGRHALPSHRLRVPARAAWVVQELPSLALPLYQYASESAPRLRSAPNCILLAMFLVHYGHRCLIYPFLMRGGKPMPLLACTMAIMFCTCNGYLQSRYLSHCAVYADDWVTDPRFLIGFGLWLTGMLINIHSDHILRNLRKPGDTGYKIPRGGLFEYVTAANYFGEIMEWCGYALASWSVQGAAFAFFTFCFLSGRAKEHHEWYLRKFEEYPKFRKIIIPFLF
As to the kind of experiment: Inhibition of 5-alpha-reductase type I in HEK I cells (conversion of [4-14C]-androstenedione to dihydroandrostenedione). The assay is classed as cell-based.
Protocol: Les cellules de type HEK I et HEK II ont été utilisées dans du DMEM (pH 7.4) avec 10 % FCS, Penicillin/Streptomycin (100 U/mL and 100 µg/mL) et 0.5 mg/mL de Geneticin-418-sulfate. Les tests d'inhibition ont été réalisés à des concentrations cellulaires de 0.25 x 106 cellules par 1.9 cm^2 et incubées pendant 20 h, 5 % CO2 à 37 °C.

The target of assay [2] is T2, 5-α reductase type II (Homo sapiens, UniProt P31213).
T2 construct: expressed in transfected cells; host or cells: HEK II cells (HEK line kept under Geneticin-418 selection)
T2 sequence (P31213 1-254): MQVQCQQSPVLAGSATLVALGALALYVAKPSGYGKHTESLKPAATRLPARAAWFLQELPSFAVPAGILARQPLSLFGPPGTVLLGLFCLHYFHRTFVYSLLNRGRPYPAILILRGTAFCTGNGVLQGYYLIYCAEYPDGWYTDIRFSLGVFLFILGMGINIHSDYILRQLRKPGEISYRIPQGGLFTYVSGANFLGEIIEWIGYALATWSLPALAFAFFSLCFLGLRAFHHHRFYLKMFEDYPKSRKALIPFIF
The settings on record: reference value used to choose the positive control concentration; read-out: IC50 du finasteride; cited from earlier work.

In assay [3] the target is T2, 5-α reductase type II. Briefly: Inhibition of 5-alpha-reductase type II in HEK II cells (conversion of [4-14C]-androstenedione to dihydroandrostenedione). The assay is classed as cell-based. The settings on record: for % inhibition de la 5-α reductase type II: n.i. = pas d'inhibition observée. The procedure: Les cellules de type HEK I et HEK II ont été utilisées dans du DMEM (pH 7.4) avec 10 % FCS, Penicillin/Streptomycin (100 U/mL and 100 µg/mL) et 0.5 mg/mL de Geneticin-418-sulfate. Les tests d'inhibition ont été réalisés à des concentrations cellulaires de […] cellules par 1.9 cm^2 et incubées pendant 20 h, 5 % CO2 à 37 °C.
Les composés sont dissous dans le DMSO et dilués avec le DMEM pour atteindre les concentrations finales de 100 µM, 10 µM et 1 µM.
Les mesures ont été réalisées grâce à un Phospholmager et les spots correspondant au [4-14C]-androstenedione (A) et au [4-14C]-dihydroandrostenedione (DHA) furent enregistrés avec le logiciel correspondant.
Les calculs ont été réalisés selon la formule suivante: % conversion = (PSL(DHA))/(PSL(DHA+A)) × 100 [formula]
Le pourcentage d'inhibition a été calculé sur une moyenne de deux mesures.
La référence est le finastéride, un médicament inhibiteur des 5α-reductase qui est utilisé comme contrôle positif à deux concentrations de 800 nM et 100 nM, correspondant à l'IC50 du finasteride pour la 5α-reductase de type I et la 5α-reductase de type II, respectivement.

Assay [4] concerns the target T1, 5-α reductase type I. The settings on record: reference value used to choose the positive control concentration; read-out: IC50 du finasteride; cited from earlier work.
In assay [5] the test system is taux plasmatique de testostérone. As to the kind of experiment: Plasma testosterone level in mice after chronic i.p. administration (ELISA). The assay is classed as in vivo, souris SWISS. The settings on record: young male mice, figure 1, result in words. The procedure:
[…] […] • Letrozole • Dose étudiée : 2 mg/kg. • Mise en solution extemporanée dans le méthylcellulose • Honokiol • Doses étudiée : • Honokiol : 0.01, 0.05, 0.5, 2, 5, 10 mg/kg. • Mise en solution extemporanée dans le méthylcellulose • Voie d'administration : […].). • Volume d'injection : 10 ml/kg. Les dosages ont é[…] selon le protocole du kit ELISA commercialisé par la société AbCys S.A., France.
(An ELISA detects its analyte on a solid surface through an enzyme-linked reagent.)

pIC50: −log10 of the molar value. Read-outs that look alike come from different tables or passages of the source.

As a reminder, the inhibition is the percentage by which the read-out fell short of the control. A word on the pIC50: it is the IC50 on a negative log10 scale, so that one unit is a factor of ten. Regarding `CC(C)(C)NC(=O)[C@H]1CC[C@H]2[C@@H]3CC[C@H]4NC(=O)C=C[C@]4(C)[C@H]3CC[C@]12C` [Finasteride, finastéride, reference compound], the inhibition at 0.1 µM at 5-α reductase type I [1] (100 nM, mean of two measurements, read-out: % inhibition de la 5-α reductase type I) was determined as 11%; on 5-α reductase type II [3] (100 nM, mean of two measurements, read-out: % inhibition de la 5-α reductase type II) it was 55%. The inhibition at 0.8 µM stood at 48% at 5-α reductase type I [1] (800 nM, mean of two measurements, read-out: % inhibition de la 5-α reductase type I) and 89% on 5-α reductase type II [3] (800 nM, mean of two measurements, read-out: % inhibition de la 5-α reductase type II). For the same compound, the pIC50 at 5-α reductase type II [2] was 7.00; on 5-α reductase type I [4], 6.10.

With `C=CCc1ccc(O)c(-c2ccc(O)c(CC=C)c2)c1` [Honokiol, honokiol], the inhibition at 1 µM on 5-α reductase type I [1] (1 µM, mean of two measurements, read-out: % inhibition de la 5-α reductase type I) is 1%. For the same compound, the inhibition at 10 µM at 5-α reductase type I [1] (10 µM, mean of two measurements, read-out: % inhibition de la 5-α reductase type I) turned out to be 11%. Besides, the inhibition at 100 µM on 5-α reductase type I [1] (100 µM, mean of two measurements, read-out: % inhibition de la 5-α reductase type I) was 64%. Besides, the “sélectivité 5-α réductase de type I / type II” value at 5-α reductase type I [1] (conclusion in words) is given as “inhibiteur sélectif de la 5-α réductase de type I”. Further, the pIC50 at 5-α reductase type I [1] (estimate from the dose-dependent inhibition) was approximately 4.10. The “taux de testostérone plasmatique” value in assay [5] is listed as “modulation du taux de testostérone en fonction des doses administrées”. Also, the “% inhibition de la 5-α reductase type II” value on 5-α reductase type II [3] (1 µM), on 5-α reductase type II [3] (10 µM) and on 5-α reductase type II [3] (100 µM) was “n.i” in each case. In addition, at 5-α reductase type II [3] (result in words), the “affinité pour la 5-α réductase de type II” value is given as “aucune affinité n'est observée”.
